# Columns and labels:
# AIDS = experiment: clinical use in AIDS patients (case history, fusidic acid added to the therapeutic regimen); assay type: in vivo, human
# Experimental: Since it is known that fusidic acid can penetrate phagocytic cells and kill intracellular bacteria, fusidic acid was administered to AIDS patients with opportunistic infections in the hope that it might assist other antibiotics in combatting these infections. […] The present invention is based on this unexpected finding.
# The patient, a person with a past history of hepatitis (HBsAG positive) and recurrent seborrhoic dermatitis was well until 1984 when they consulted a physician since they were suffering from lethargy, fever and weight loss. […] They remained stable with no further deterioration until 1986 when they suffered further weight loss and diarrhoea. […] Mycobacterium hominis was grown from both the stool and the blood following the detection of acid fast bacilli in a lymph node biopsy. The patient was given isoniazid, ethambutol and rifampicin as well as antiparasitic and local antifungal therapy. After six weeks of treatment there was no improvement with respect to their symptoms and they continued to lose weight (16 kg since admission). […] (orally) was added to their regimen. Two weeks following commencement they became afebrile, began to put on weight and was able to undergo a transurethral prostectomy, following which they returned to work and has been well since. Two months later they had increased their weight by 10 kg.
# fungi = conditions: cited from earlier work
# RF = experiment: in vitro test for anti-HIV activity: prevention of infection of a CD4 positive cell line; assay type: cell-based; conditions: Human immunodeficiency virus 1, isolate RF, read-out: concentration required to prevent infection of the CD4 positive cell line
# From the text: (§1) In the in vitro test for anti-HIV activity, a CD4 positive cell line was used.
# [1] = tested on: HIV prototype isolate CBL-1; experiment: as above; assay type: cell-based; conditions: Human immunodeficiency virus 1, read-out: concentration able to inhibit the HIV prototype isolate CBL-1 from infecting the CD4 positive cell line
# From the text: as §1
# gram negative bacilli = conditions: cited from earlier work
# Coxsackie virus A21 = conditions: cited from earlier work
# rhinovirus = conditions: cited from earlier work
compound,measurement,setting,value
CC(=O)O[C@H]1C[C@@]2(C)[C@@H](C[C@@H](O)[C@H]3[C@@]4(C)CC[C@@H](O)[C@@H](C)[C@@H]4CC[C@@]32C)/C1=C(\CCC=C(C)C)C(=O)O [fusidic acid],general condition of AIDS patients,"AIDS; AIDS patients with opportunistic infections, added to the therapeutic regimen",remarkable improvement
same,fever status,"AIDS; one AIDS patient, 500 mg t.d.s. orally added to isoniazid, ethambutol, rifampicin, antiparasitic and antifungal therapy, two weeks following commencement",afebrile
same,weight increase,"AIDS; one AIDS patient, 500 mg t.d.s. orally added to regimen, two months later",10 kg
same,activity against fungi,fungi,weak activity
same,minimal effective concentration,RF,100 µg/mL
same,minimal effective concentration,[1],50 µg/mL
same,activity against gram negative bacilli,gram negative bacilli,weak activity
same,in vitro antiviral effect against Coxsackie virus A21,Coxsackie virus A21,some in vitro antiviral effect
same,in vitro antiviral effect against rhinovirus,rhinovirus,some in vitro antiviral effect

# — patent EP0300073A1 (priority 1987, dated 1989)
